system: HCV replicon cells; test: Cell-based HCV replicon assay (replicon RNA level by real time PCR, Taqman); conditions: Hepatitis C virus, 72 h, HCV replicon cells, harvested day 3, replicon RNA by real time PCR; reported as range class; read-out: EC90 (μM) range
In short: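 Readout: ΔCT between NS5B replicon RNA and GAPDH by real-time RT-PCR in lysates harvested on day 3, fitted sigmoidally; EC50 at ΔCT=1, EC90 at ΔCT=3.2. Compounds tested at ten 2-fold dilutions from 25 μM to 1 μM start, 10% FBS, 0.5% DMSO.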

Row | Compound | EC90 [µM]
1 | CCOc1ccc2nc(-c3c(Cl)nc(N(C)C)nc3N[C@@H]3C[C@H](CO)[C@@H](O)[C@H]3O)sc2c1 [Example 203] | > 5
2 | CN(C)c1ccc2sc(-c3c(Cl)nc(N(C)C)nc3N[C@@H]3C[C@H](CO)[C@@H](O)[C@H]3O)nc2c1 [Example 204] | > 5
3 | COCCNc1nc(C)c(-c2nc3ccccc3s2)c(N[C@@H]2C[C@H](CO)[C@@H](O)[C@H]2O)n1 [Example 205] | < 0.5
4 | CCOCCNc1nc(Cl)c(-c2nc3ccccc3s2)c(N[C@@H]2C[C@H](CO)[C@@H](O)[C@H]2O)n1 [Example 206] | < 0.5
5 | CCOc1ccc2nc(-c3c(C)nc(N(C)C)nc3N[C@@H]3C[C@H](CO)[C@@H](O)[C@H]3O)sc2c1 [Example 207] | > 5
6 | CCOCCNc1nc(C)c(-c2nc3ccccc3s2)c(N[C@@H]2C[C@H](CO)[C@@H](O)[C@H]2O)n1 [Example 208] | < 0.5
7 | CC(=O)OCCNc1nc(Cl)c(-c2nc3ccccc3s2)c(N[C@@H]2C[C@H](CO)[C@@H](O)[C@H]2O)n1 [Example 209] | < 0.5
8 | Cc1nc(NCCO)nc(N[C@@H]2C[C@H](CO)[C@@H](O)[C@H]2O)c1-c1nc2ccccc2s1 [Example 210] | < 0.5
9 | CC(=O)OCCNc1nc(C)c(-c2nc3ccccc3s2)c(N[C@@H]2C[C@H](CO)[C@@H](O)[C@H]2O)n1 [Example 211] | < 0.5
10 | OCCNc1nc(Cl)c(-c2nc3ccccc3s2)c(N[C@@H]2C[C@H](CO)[C@@H](O)[C@H]2O)n1 [Example 212] | < 0.5
11 | OC[C@H]1C[C@@H](Nc2nc(NCCF)nc(Cl)c2-c2nc3ccccc3s2)[C@H](O)[C@@H]1O [Example 213] | < 0.5
12 | OC[C@H]1C[C@@H](Nc2nc(NCC(F)F)nc(Cl)c2-c2nc3ccccc3s2)[C@H](O)[C@@H]1O [Example 214] | < 0.5
13 | Cc1nc(NCC(F)F)nc(N[C@@H]2C[C@H](CO)[C@@H](O)[C@H]2O)c1-c1nc2ccccc2s1 [Example 215] | < 0.5
14 | Cc1nc(NCCF)nc(N[C@@H]2C[C@H](CO)[C@@H](O)[C@H]2O)c1-c1nc2ccccc2s1 [Example 216] | 0.5 to 5
15 | OC[C@H]1C[C@@H](Nc2nc(NCCC(F)(F)F)nc(Cl)c2-c2nc3ccccc3s2)[C@H](O)[C@@H]1O [Example 217] | < 0.5
16 | Cc1nc(NCCC(F)(F)F)nc(N[C@@H]2C[C@H](CO)[C@@H](O)[C@H]2O)c1-c1nc2ccccc2s1 [Example 218] | < 0.5

Row | Compound | EC90 [µM]
17 | CC(C)OCCNc1nc(Cl)c(-c2nc3ccccc3s2)c(N[C@@H]2C[C@H](CO)[C@@H](O)[C@H]2O)n1 [Example 219] | < 0.5
18 | Cc1nc(NCCOC(C)C)nc(N[C@@H]2C[C@H](CO)[C@@H](O)[C@H]2O)c1-c1nc2ccccc2s1 [Example 220] | < 0.5
19 | COCCCNc1nc(Cl)c(-c2nc3ccccc3s2)c(N[C@@H]2C[C@H](CO)[C@@H](O)[C@H]2O)n1 [Example 222] | < 0.5
20 | COCCCNc1nc(C)c(-c2nc3ccccc3s2)c(N[C@@H]2C[C@H](CO)[C@@H](O)[C@H]2O)n1 [Example 223] | < 0.5
21 | OC[C@H]1C[C@@H](Nc2nc(NCCCC(F)(F)F)nc(Cl)c2-c2nc3ccccc3s2)[C@H](O)[C@@H]1O [Example 224] | < 0.5
22 | Cc1nc(NCCCC(F)(F)F)nc(N[C@@H]2C[C@H](CO)[C@@H](O)[C@H]2O)c1-c1nc2ccccc2s1 [Example 225] | < 0.5
23 | CCCOCCNc1nc(Cl)c(-c2nc3ccccc3s2)c(N[C@@H]2C[C@H](CO)[C@@H](O)[C@H]2O)n1 [Example 226] | < 0.5
24 | CCCOCCNc1nc(C)c(-c2nc3ccccc3s2)c(N[C@@H]2C[C@H](CO)[C@@H](O)[C@H]2O)n1 [Example 227] | < 0.5
25 | CO[C@@H](C)CNc1nc(Cl)c(-c2nc3ccccc3s2)c(N[C@@H]2C[C@H](CO)[C@@H](O)[C@H]2O)n1 [Example 228] | < 0.5
26 | CO[C@@H](C)CNc1nc(C)c(-c2nc3ccccc3s2)c(N[C@@H]2C[C@H](CO)[C@@H](O)[C@H]2O)n1 [Example 229] | < 0.5
27 | Nc1nc(Cl)c(-c2cc3cc([N+](=O)[O-])cnc3o2)c(N[C@@H]2C[C@H](CO)[C@@H](O)[C@H]2O)n1 [Example 302] | 0.5 to 5
28 | Nc1nc(Cl)c(-c2cc3c(F)cncc3o2)c(N[C@@H]2C[C@H](CO)[C@@H](O)[C@H]2O)n1 [Example 303] | 0.5 to 5
29 | Cc1cncc2oc(-c3c(Cl)nc(N)nc3N[C@@H]3C[C@H](CO)[C@@H](O)[C@H]3O)cc12 [Example 304] | > 5
30 | Cc1nccc2cc(-c3c(Cl)nc(N)nc3N[C@@H]3C[C@H](CO)[C@@H](O)[C@H]3O)oc12 [Example 305] | < 0.5
31 | Cc1cc2cc(-c3c(Cl)nc(N)nc3N[C@@H]3C[C@H](CO)[C@@H](O)[C@H]3O)oc2cn1 [Example 306] | < 0.5

same assay, conditions: Hepatitis C virus, 72 h, HCV replicon cells, harvested on day 3, replicon RNA by real time PCR; calculated EC90 reported as range class; read-out: EC90 (μM) range

Row | Compound | EC90 [µM]
32 | CO[C@H](C)CNc1nc(Cl)c(-c2nc3ccccc3s2)c(N[C@@H]2C[C@H](CO)[C@@H](O)[C@H]2O)n1 [Example 230] | < 0.5
33 | CO[C@H](C)CNc1nc(C)c(-c2nc3ccccc3s2)c(N[C@@H]2C[C@H](CO)[C@@H](O)[C@H]2O)n1 [Example 231] | < 0.5
34 | OC[C@H]1C[C@@H](Nc2nc(NCc3ccccc3F)nc(Cl)c2-c2nc3ccccc3s2)[C@H](O)[C@@H]1O [Example 232] | < 0.5
35 | Cc1nc(NCc2ccccc2F)nc(N[C@@H]2C[C@H](CO)[C@@H](O)[C@H]2O)c1-c1nc2ccccc2s1 [Example 233] | < 0.5
36 | OC[C@H]1C[C@@H](Nc2nc(NCc3cccc(F)c3)nc(Cl)c2-c2nc3ccccc3s2)[C@H](O)[C@@H]1O [Example 234] | < 0.5
37 | Cc1nc(NCc2ccc(F)cc2)nc(N[C@@H]2C[C@H](CO)[C@H]3OC(C)(C)O[C@H]32)c1-c1nc2ccccc2s1 [Example 235] | < 0.5
38 | Cc1nc(NCc2ccccc2C(F)(F)F)nc(N[C@@H]2C[C@H](CO)[C@H]3OC(C)(C)O[C@H]32)c1-c1nc2ccccc2s1 [Example 236] | > 5
39 | Cc1nc(NCc2cccc(C(F)(F)F)c2)nc(N[C@@H]2C[C@H](CO)[C@H]3OC(C)(C)O[C@H]32)c1-c1nc2ccccc2s1 [Example 237] | 0.5 to 5
40 | Cc1nc(NCc2ccc(F)cc2)nc(N[C@@H]2C[C@H](CO)[C@@H](O)[C@H]2O)c1-c1nc2ccccc2s1 [Example 238] | < 0.5
41 | Cc1nc(NCc2ccccc2C(F)(F)F)nc(N[C@@H]2C[C@H](CO)[C@@H](O)[C@H]2O)c1-c1nc2ccccc2s1 [Example 239] | 0.5 to 5
42 | Cc1nc(NCc2cccc(C(F)(F)F)c2)nc(N[C@@H]2C[C@H](CO)[C@@H](O)[C@H]2O)c1-c1nc2ccccc2s1 [Example 240] | < 0.5
43 | Cc1nc(NCc2ccc(C(F)(F)F)cc2)nc(N[C@@H]2C[C@H](CO)[C@H]3OC(C)(C)O[C@H]32)c1-c1nc2ccccc2s1 [Example 241] | 0.5 to 5
44 | Cc1nc(NCc2ccc(C(F)(F)F)cc2)nc(N[C@@H]2C[C@H](CO)[C@@H](O)[C@H]2O)c1-c1nc2ccccc2s1 [Example 242] | < 0.5
45 | Cc1nc(NCc2cccc(F)c2)nc(N[C@@H]2C[C@H](CO)[C@H]3OC(C)(C)O[C@H]32)c1-c1nc2ccccc2s1 [Example 243] | < 0.5
46 | Cc1nc(NCc2cccc(F)c2)nc(N[C@@H]2C[C@H](CO)[C@@H](O)[C@H]2O)c1-c1nc2ccccc2s1 [Example 244] | < 0.5
47 | Cc1nc(NCCN(C)C)nc(N[C@@H]2C[C@H](CO)[C@H]3OC(C)(C)O[C@H]32)c1-c1nc2ccccc2s1 [Example 245] | > 5

Row | Compound | EC90 [µM]
48 | Cc1nc(NCCN(C)C)nc(N[C@@H]2C[C@H](CO)[C@@H](O)[C@H]2O)c1-c1nc2ccccc2s1 [Example 246] | > 5
49 | Cc1nc(NCC(F)(F)F)nc(N[C@@H]2C[C@H](CO)[C@@H](O)[C@H]2O)c1-c1nc2cc(N(C)C)ccc2s1 [Example 247] | < 0.5
50 | Cc1nc(NCCN2CCOCC2)nc(N[C@@H]2C[C@H](CO)[C@H]3OC(C)(C)O[C@H]32)c1-c1nc2ccccc2s1 [Example 248] | < 0.5
51 | Cc1nc(NCCNC(=O)NC(C)(C)C)nc(N[C@@H]2C[C@H](CO)[C@H]3OC(C)(C)O[C@H]32)c1-c1nc2ccccc2s1 [Example 249] | > 5
52 | Cc1nc(NCCNC(=O)NC(C)(C)C)nc(N[C@@H]2C[C@H](CO)[C@@H](O)[C@H]2O)c1-c1nc2ccccc2s1 [Example 250] | 0.5 to 5
53 | OC[C@H]1C[C@@H](Nc2nc(NCc3ccc(F)cc3)nc(Cl)c2-c2nc3ccccc3s2)[C@H](O)[C@@H]1O [Example 251] | < 0.5
54 | Cc1nc(NCCN2CCOCC2)nc(N[C@@H]2C[C@H](CO)[C@@H](O)[C@H]2O)c1-c1nc2ccccc2s1 [Example 252] | < 0.5
55 | Cc1nc(NCCNC(=O)OCc2ccccc2)nc(N[C@@H]2C[C@H](CO)[C@H]3OC(C)(C)O[C@H]32)c1-c1nc2ccccc2s1 [Example 253] | 0.5 to 5
56 | Cc1nc(NCCNC(=O)OCc2ccccc2)nc(N[C@@H]2C[C@H](CO)[C@@H](O)[C@H]2O)c1-c1nc2ccccc2s1 [Example 254] | 0.5 to 5
57 | CCOC(=O)NCCNc1nc(C)c(-c2nc3ccccc3s2)c(N[C@@H]2C[C@H](CO)[C@H]3OC(C)(C)O[C@H]32)n1 [Example 255] | < 0.5
58 | CCOC(=O)NCCNc1nc(C)c(-c2nc3ccccc3s2)c(N[C@@H]2C[C@H](CO)[C@@H](O)[C@H]2O)n1 [Example 256] | < 0.5
59 | Cc1nc(NCCNS(C)(=O)=O)nc(N[C@@H]2C[C@H](CO)[C@H]3OC(C)(C)O[C@H]32)c1-c1nc2ccccc2s1 [Example 257] | < 0.5
60 | Cc1nc(NCCNS(C)(=O)=O)nc(N[C@@H]2C[C@H](CO)[C@@H](O)[C@H]2O)c1-c1nc2ccccc2s1 [Example 258] | 0.5 to 5
61 | CCOCCNc1nc(C)c(-c2nc3cc(NC)ccc3s2)c(N[C@@H]2C[C@H](CO)[C@@H](O)[C@H]2O)n1 [Example 259] | < 0.5
62 | CNc1ccc2sc(-c3c(C)nc(NCC(F)(F)F)nc3N[C@@H]3C[C@H](CO)[C@@H](O)[C@H]3O)nc2c1 [Example 260] | < 0.5

— US8697694B2, “Substituted pyridine and pyrimidine derivatives and their use in treating viral infections” (priority 2008, dated 2014)
